From US8361483B2, “Epinecidin-1 as a vaccine adjuvant for enhancing immune responses” (priority 2011, dated 2013)
“Also recorded” adds a separate entry of the source. Where no end group is shown, it is not given here.

Columns and labels:
BHK-21 cells = assay: Cell proliferation assay, Epi-1 alone on BHK-21 cells; assay type: cell-based, baby hamster; details: Epi up to 1 μg/ml, 48 h, n=3
From the text: Baby hamster kidney (BHK)-21 cells were purchased and maintained as per American Type Culture Collection (ATCC no. CCL10, Manassas, Va., USA) instructions. Female C3H/HeN mice, purchased from the National Laboratory Animal Breeding and Research Center (Taiwan) and BioLASCO (Taipei, Taiwan), were housed at the Laboratory Animal Facility, National Taiwan Ocean University NTOU; Keelung, Taiwan). Mice were maintained in pathogen-free sterile isolators according to institutional guidelines, and all food, water, caging, and bedding were sterilized before use. All procedures were approved by the Animal Care and Use Committee of NTOU. The 50% lethal dose (LD50) of JEV in female C3H/HeN mice was determined. The Beijing-1 JEV strain was maintained in suckling mouse brains as previously described.
BHK-21 cells in 48-well plates were assayed with CellTiter 96 Aqueous One Solution (Promega, Madison, Wis., USA) following the vendor's instructions. Epi-1 was administered together with Japanese encephalitis virus (JEV) as co-treatment; Epi-1 was administered 24 h prior to (prophylaxis) or after (curative) the JEV inoculation. After blank value subtraction, the percentage survival against control cells was calculated. […]
The effects of Epi-1 on JEV in BHK-21 cells were studied. […] At 48 h, cell viability of JEV infection was determined (FIG. 1a). […]

[1] = Toxicity of Epi-1 alone injected i.p. in adult mice
Protocol: Six-week-old adult C3H/HeN mice were randomly divided into five groups of 10 mice each. […] After 14 days, a re-challenge was carried out on surviving mice with 50× the LD50 of JEV. Mouse survival and activity were monitored on a daily basis for up to 25 days after the primary injection. For serological studies, serum was collected on days 4, 7, and 21 after treatment. A similar approach was followed to test immunized mice.
JEV was co-injected with or without Epi-1 at various dosages (50, 100, and 200 μg/ml) into adult mice and subsequently boosted (a second JEV challenge without Epi-1) on day 14. The survival rate of mice was recorded for 25 days.

## GFIFHIIKGLFHAGKMIHGLV [Epi-1, epinecidin-1]
BHK-21 cells
  cell viability: did not affect cell viability; also recorded: no detectable cytotoxicity
[1]; 200 μg/ml Epi-1 alone i.p., n=10
  survival and behaviour: all mice survived and behaved normally
[1]; Epi-1 alone, adult mice
  toxic effects: No toxic effects were noted; also recorded: no detectable cytotoxicity
